Laboratory results as given in article PMC8805316, “NanoBRET in C. elegans illuminates functional receptor interactions in real time” (BMC Molecular and Cell Biology, 2022).
Entries after “also recorded” stand apart in the source; their conditions may differ. Values belong to the molecule of their own block, whether it stands above or below them. Non-standard residues stand in square brackets, D forms with d. Residues, ends and D or L forms follow the SMILES beside them. No end group written: not given here. *: point of attachment. 5TAMRA = CN(C)c1ccc2c(c1)Oc1cc(N(C)C)ccc1C21OC(=O)c2cc(C(=O)*)ccc21; Dap(TAM) = not defined here; Dap = NC[C@H](N)C(=O)O

Assays:
Nluc::LAT-1 = molecular target: T1, Nluc::LAT-1 (Caenorhabditis elegans, UniProt G5EDW2); assay: biochemical; type: binding, C. elegans
T1 construct: Lat-1p::lat-1(1–249)::Nluc::lat-1(250–650)::GFP::lat-1(651–1015); GFP, inserted between residues 650 and 651 (so in the source); expressed in transfected cells; host or cells: transgenic C. elegans (extrachromosomal array, lat-1 knockout background), incised young adult worms
Protocol: All measurements were conducted using synchronized young adult worms (1 day post L4). Individuals were washed twice with HBSS (Hanks’ balanced salt solution with 25 mM HEPES, pH 7.4, 37 °C) and the number of worms/ μl was calculated.
(§1) For luminescence measurements of intact worms, animals (1; 10; 50; 100 or 500) were directly transferred into the wells of a white flat-bottom 384-well plate in 50 μl HBSS buffer. Worms to be cut were pre-washed with M9 + 0.1% Tween to avoid sticking of worms to the dish and subsequently transferred in 2 ml of HBSS. Incisions were made in the middle of the body with a scalpel blade and worms were immediately afterwards transferred with a glass pipette into HBSS buffer on ice. For mechanically cracking, a worm suspension was homogenized in tubes with 150 μl HBSS and six glass beads (Ø = 3 mm) using with a Precellys homogenizer (Bertin instruments, France) for 40 s at 5000 rpm. Samples were placed on ice until further usage.
For BRET binding assays in vivo, the nanoluciferase (Nluc) was applied as energy donor and either peptides labeled with the TAM fluorophore or the mNeonGreen fluorescent protein fused to a receptor served as acceptor.
30 Nluc-expressing worms with incisions in 50 μl BRET buffer were incubated with dissolving buffer or peptide solutions of final concentrations ranging from 0.05–10 μM in a 384-well plate. During a 25 min incubation with gentle shaking, 10 μl Nano-Glo Live Cell Reagent (N2011, Promega, USA) of a 5x stock were added according to manufacturer’s instructions after 15 min to each well. Competition-binding assays were performed similarly, but additionally, unlabeled peptide (final concentrations 0.016–10 μM) was pipetted into each well and 5 μl of a 10x stock Nano-Glo Live cell reagent was applied after 15 min.
Luminescence (L) and fluorescence (F) were detected with a microplate plate reader (Tecan Spark) using the following filter set: donor = 430–470 nm, acceptor = 550–700 nm with 1000 ms integration time. BRET was calculated by dividing F values by L values. For each experiment, the background signal of donor-only cells was subtracted, such that the BRET ratio at 0 μM ligand equals 0.00. In Fig. 3B (left) and Fig. 3D, the mean of n = 4 (NPR-11) or n = 3 (LAT-1) independent, individually background-corrected single experiments is presented.

[1] = tested on: empty vector-transfected COS-7 cells; assay: cAMP accumulation assay (AlphaScreen), COS-7 cells with empty vector (Fig. S3C); type: cell-based, African green monkey; details: 100 μM peptide, mean ± SEM of 5 independent assays, DMSO control 5.39 ± 2.15
Protocol: (§2) All in vitro experiments were carried out using either HEK293 cells (Homo sapiens, embryonic kidney, DSMZ (German Collection of Microorganisms and Cell Cultures) ACC 305) or COS-7 cells (African green monkey, cercopithecus aethiops, kidney, DSMZ (German Collection of Microorganisms and Cell Cultures) ACC 60). HEK293 cells were kept in Dulbecco’s Modified Eagle’s Medium (DMEM) with Ham’s F-12 (v/v) and 15% (v/v) heat-inactivated fetal calf serum (FCS), while COS-7 cells were cultured in DMEM with 10% (v/v) FCS and 1% (v/v) Penicillin-Streptomycin. All cells were kept at 37 °C under a humidified atmosphere (5% CO2).
Gs-coupling of LAT-1, quantified by detection of intracellular cAMP accumulation, was measured using an AlphaScreen cAMP detection kit (PerkinElmer, USA). Briefly, COS-7 cells (15,000 cells/ well) were transfected in 96-well plates with either 200 ng of LAT-1-encoding plasmid or empty vector using Lipofectamine2000 (ThermoFisher Scientific). […] The following steps were conducted as stated in the manufactures’ protocol of the AlphaScreen cAMP detection kit (PerkinElmer, USA) and an EnVision plate reader (PerkinElmer, USA) was used to detect the fluorescence. The data were analyzed with GraphPad Prism version 6 (GraphPad Software) are presented in x-fold over the corresponding empty vector control.

LAT-1 = assay: cAMP accumulation assay (AlphaScreen), COS-7 cells with LAT-1 plasmid (Fig. S3C); type: cell-based, C. elegans; details: for cAMP conc.: LAT-1 plasmid, 100 μM peptide, mean ± SEM of 5 independent assays, DMSO control 4.66 ± 1.72
Protocol: as §2
Gs-coupling of LAT-1, quantified by detection of intracellular cAMP accumulation, was measured using an AlphaScreen cAMP detection kit (PerkinElmer, USA). Briefly, COS-7 cells (15,000 cells/ well) were transfected in 96-well plates with either 200 ng of LAT-1-encoding plasmid or empty vector using Lipofectamine2000 (ThermoFisher Scientific). 48 h post transfection, the cells were stimulated with 100 μM peptide solution in HBSS containing 1 mM 3-isobutyl-1-methylxanthine (IBMX) and 1% DMSO and control buffer without peptide for 30 min at 37 °C. Subsequently, the medium was displaced with lysis buffer (5 mM HEPES, 0.3% Tween-20, 0.1% BSA, 1 mM IBMX, pH 7.6) and plates were frozen at − 80 °C until further use. The following steps were conducted as stated in the manufactures’ protocol of the AlphaScreen cAMP detection kit (PerkinElmer, USA) and an EnVision plate reader (PerkinElmer, USA) was used to detect the fluorescence. The data were analyzed with GraphPad Prism version 6 (GraphPad Software) are presented in x-fold over the corresponding empty vector control.

[2] = molecular target: Nluc::NPR-11::eYFP in membranes of transfected HEK293 cells (C. elegans) (UniProt Q18179)
Nluc::NPR-11::eYFP in membranes of transfected HEK293 cells (C. elegans), sequence (Q18179 whole entry, the tested form may be a part): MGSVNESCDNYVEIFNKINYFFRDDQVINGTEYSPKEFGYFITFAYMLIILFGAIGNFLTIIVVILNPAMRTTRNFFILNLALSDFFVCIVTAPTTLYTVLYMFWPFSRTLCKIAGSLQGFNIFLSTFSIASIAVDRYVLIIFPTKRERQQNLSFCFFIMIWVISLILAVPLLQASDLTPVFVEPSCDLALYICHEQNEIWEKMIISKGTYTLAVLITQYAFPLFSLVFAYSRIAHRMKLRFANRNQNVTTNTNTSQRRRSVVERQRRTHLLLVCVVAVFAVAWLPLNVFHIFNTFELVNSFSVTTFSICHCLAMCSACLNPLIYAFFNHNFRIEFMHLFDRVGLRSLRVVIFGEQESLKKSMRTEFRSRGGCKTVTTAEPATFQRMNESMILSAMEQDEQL

[3] = molecular target: Nluc::NPR-11 (Nanoluciferase fused to the extracellular N terminus of the neuropeptide receptor NPR-11), expressed in C. elegans (C. elegans) (UniProt Q18179); assay: FRET or BRET; NanoBRET binding in vivo: 30 Nluc-expressing C. elegans (L4 + 1 day) with incisions in 50 μl BRET buffer (HBSS + 25 mM HEPES, pH 7.4), TAM-labeled peptide 0.05-10 μM, 25 min incubation, Nano-Glo Live Cell Reagent (furimazine); Kd from one-site total and nonspecific binding fit with the scrambled peptide as nonspecific
Nluc::NPR-11 (Nanoluciferase fused to the extracellular N terminus of the neuropeptide receptor NPR-11), expressed in C. elegans (C. elegans), sequence (Q18179 whole entry, the tested form may be a part): as above

[4] = molecular target: Nluc::NPR-11::eYFP in membranes of transfected HEK293 cells (C. elegans) (UniProt Q18179); assay: FRET or BRET; NanoBRET binding in vitro: membranes of HEK293 cells transiently transfected with Nluc::NPR-11::eYFP (0.5 μg total protein), TAM-labeled peptide 10^-12 M to 10^-5 M, BRET buffer with 0.1% BSA and Pefabloc SC, 10 min, room temperature, coelenterazine H 4 μM; three-parameter logistic …
[5] = molecular target: Nluc::NPR-11 (Nanoluciferase fused to the extracellular N terminus of the neuropeptide receptor NPR-11), expressed in C. elegans (C. elegans) (UniProt Q18179); assay: FRET or BRET; NanoBRET binding in vivo: 30 Nluc-expressing C. elegans (L4 + 1 day) with incisions in 50 μl BRET buffer (HBSS + 25 mM HEPES, pH 7.4), TAM-labeled peptide 0.05-10 μM, 25 min incubation, Nano-Glo Live Cell Reagent (furimazine); Kd from one-site total and nonspecific binding fit with the scrambled peptide as nonspecific; remark: listed apart in the source
Nanoluciferase (Nluc) = assay: Luminescence of luciferase substrate in cut Nluc-expressing worms (Fig. 1E); details: vs coelenterazine H
Protocol: as §1
50 prepared worms were transferred into a white flat bottom 384-well plate in a total volume of 50 μl HBSS + 25 mM HEPES (pH 7.4; denoted BRET buffer). Immediately after adding coelenterazine H solution (Nanolight/ Prolume, USA) to a final concentration of 4 μM, luminescence was detected using an EnVision plate reader (PerkinElmer, USA) and a NanoBRET Blue 460/80 nm filter with 1000 ms integration time (five repeats every 5 min for long time observation).

[6] = molecular target: T2, Nluc::LAT-1 (lat-1p::lat-1(1-249)::Nluc::lat-1(250-650)::GFP::lat-1(651-1015)), expressed in C. elegans (C. elegans, UniProt G5EDW2 28-1014); assay: cell-based or functional assay
T2 sequence (looked up): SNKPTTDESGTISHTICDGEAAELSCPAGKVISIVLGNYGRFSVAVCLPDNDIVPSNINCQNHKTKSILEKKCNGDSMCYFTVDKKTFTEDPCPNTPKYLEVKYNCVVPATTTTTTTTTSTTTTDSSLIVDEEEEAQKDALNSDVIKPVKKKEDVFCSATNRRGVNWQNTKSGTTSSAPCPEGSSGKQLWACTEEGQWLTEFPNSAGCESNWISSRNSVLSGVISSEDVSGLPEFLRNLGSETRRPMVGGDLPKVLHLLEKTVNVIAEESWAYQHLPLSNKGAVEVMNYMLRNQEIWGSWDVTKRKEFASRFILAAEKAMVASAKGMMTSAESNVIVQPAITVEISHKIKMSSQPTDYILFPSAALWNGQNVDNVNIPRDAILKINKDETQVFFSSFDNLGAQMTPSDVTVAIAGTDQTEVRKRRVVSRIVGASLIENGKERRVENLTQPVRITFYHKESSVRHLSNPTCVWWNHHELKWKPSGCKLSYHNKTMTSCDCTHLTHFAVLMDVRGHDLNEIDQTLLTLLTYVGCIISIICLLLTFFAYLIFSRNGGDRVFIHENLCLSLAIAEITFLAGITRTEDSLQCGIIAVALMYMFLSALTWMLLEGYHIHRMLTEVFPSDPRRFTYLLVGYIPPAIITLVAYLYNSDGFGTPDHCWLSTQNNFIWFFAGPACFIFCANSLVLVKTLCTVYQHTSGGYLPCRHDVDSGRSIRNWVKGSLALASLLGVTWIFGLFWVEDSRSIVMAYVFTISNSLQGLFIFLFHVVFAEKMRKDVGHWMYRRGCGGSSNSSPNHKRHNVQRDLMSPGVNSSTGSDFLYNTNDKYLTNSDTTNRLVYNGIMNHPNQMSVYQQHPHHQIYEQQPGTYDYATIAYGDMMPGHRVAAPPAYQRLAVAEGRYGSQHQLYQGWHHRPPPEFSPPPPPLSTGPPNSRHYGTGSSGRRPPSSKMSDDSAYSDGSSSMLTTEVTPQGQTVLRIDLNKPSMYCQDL

Molecule: CSCC[C@H](NC(=O)[C@H](CC(C)C)NC(=O)[C@@H](NC(=O)[C@H](C)NC(=O)[C@H](Cc1ccccc1)NC(=O)[C@H](Cc1c[nH]cn1)NC(=O)[C@@H](N)[C@@H](C)O)C(C)C)C(=O)N[C@@H](CC(=O)O)C(=O)N[C@H](C(=O)N[C@@H](CCCNC(=N)N)C(=O)NCC(=O)N[C@@H](Cc1c[nH]cn1)C(=O)N[C@@H](CNC(=O)c1ccc2c(c1)C(=O)OC21c2ccc(N(C)C)cc2Oc2cc(N(C)C)ccc21)C(=O)O)C(C)C [TAM-pLAT-1] (H-THFAVLMDVRGH[Dap](5TAMRA)-OH)
Kd (Nluc::LAT-1): > 10000 nM
cAMP conc. [1]: 2.86 ± 0.60 nM
cAMP accumulation over control (LAT-1; 100 μM, 30 min, 37 °C, IBMX): 1.5 -fold
cAMP conc. (LAT-1): 3.69 ± 0.70 nM

Molecule: CSCC[C@H](N)C(=O)N[C@@H](CC(=O)O)C(=O)N[C@H](C(=O)N[C@@H](CCCNC(=N)N)C(=O)N[C@@H](C)C(=O)N[C@H](C(=O)N[C@@H](Cc1c[nH]cn1)C(=O)N[C@@H](Cc1c[nH]cn1)C(=O)NCC(=O)N[C@H](C(=O)N[C@@H](CC(C)C)C(=O)N[C@@H](Cc1ccccc1)C(=O)N[C@@H](CNC(=O)c1ccc2c(c1)C(=O)OC21c2ccc(N(C)C)cc2Oc2cc(N(C)C)ccc21)C(=O)O)C(C)C)C(C)C)[C@@H](C)O [TAM-scrpLAT-1] (H-MDTRAVHHGVLF[Dap](5TAMRA)-OH)
Kd (Nluc::LAT-1): > 10000 nM
BRET ratio relative to TAM-pLAT-1 (Nluc::LAT-1; at 10 μM): one-third higher
cAMP conc. [1]: 4.45 ± 0.71 nM
cAMP accumulation / receptor activation (LAT-1; 100 μM): did not lead to a cAMP accumulation; also recorded: does not activate the receptor
cAMP conc. (LAT-1): 4.63 ± 0.81 nM

cAMP reporter gene assay, forskolin-stimulated HEK293 cells transfected with NPR-11::eYFP (no Nluc): EC50 of NPR-11 activation [2]: 0.5 nM
Kd [3]: 1500 nM
Kd [4]: 388 nM
increase in the BRET ratio at 10 μM [5]: 0.08
Molecule: TAM-FLP-34-1 (tetramethylrhodamine-labeled FLP-34-1) (peptide)

Molecule: O=c1c(Cc2ccco2)nc2c(Cc3ccccc3)[nH]c(-c3ccccc3)cn1-2 [furimazine]
luminescence signal over time (Nanoluciferase (Nluc)): stable values over the entire time period; also recorded: lower but more stable luminescence signal

cAMP accumulation (AlphaScreen) in COS-7 cells transfected with a LAT-1-encoding plasmid, 100 μM peptide [6]: 1.5 fold over control
Molecule: THFAVLMDVRGH-{Dap(TAM)} (reading uncertain) [TAM-pLAT-1 (TAM-labeled synthetic peptide derived from the tethered agonist sequence of LAT-1)]
